The text below walks through data of patent publication US6503552B1, “Adding flavidin to a composition as an anti-oxidant” (Council of Scientific and Industrial Research, priority 2000, dated 2003).

Each structure is given as a SMILES string.

This assay in a line: antioxidant activity in β-carotene-linoleate system (bleaching of β-carotene). Conditions: for bleaching time of β-carotene: different concentrations, controls (no additive) decolorized within 120 min; for antioxidant activity: 120 min incubation at 50° C. Type of assay: biochemical. How it is done: In another embodiment of the present invention, evaluation of the antioxidant activity of flavidin has been carried out employing the procedure of Hiddgi et. al. (Phytochem, 37, 1585, 1994) with minor modifications said method comprises the following steps: […]
i) preparing assay reagent of β-carotene in chloroform by mixing linoleic acid and 200 mg of Tween 40 (polyoxyethylene sorbitan monopalmitate), ii) warming polyoxyethylene sorbitan monopalmitate (Tween 40) at a temperature of about 50° C. in a water bath, iii) removing chloroform from assay reagent at a temperature of about 40° C. under vacuum using a rotary evaporator, iv) diluting the resulting solution with triple distilled water and mixing the resulting emulsion well for one minute, v) further diluting the resulting emulsion with oxygenated water, vi) transferring aliquots of the reagent as in step (v) into tubes containing 0.2 ml of desired amount of antioxidant in ethanol, vii) keeping a control of 0.2 ml of ethanol and 4 ml of reagent as prepared in step (v). viii) immediately taking optical density of all sample (t=0) and also taking the O.D at 15 min. interval for 2 hr. (t=120), ix) incubating the tubes in water bath at a temperature of about 50° C. between each measurement taken, and x) measuring the color till the color of β-carotene disappears.
The procedure of Hiddgo et al., (Phytochemistry, 37, 1585, 1994) was followed for testing of antioxidant activity of the flavidin with minor modification. The assay reagent was prepared as follows: 0.2 mg of β-carotene in 0.5 ml of chloroform was added to 20 mg of linoleic acid and 200 mg of Tween 40 (polyoxyethylene sorbitan monopalmitate) were mixed. Tween 40 was warmed in a water bath at 50° C. before use. The chloroform was removed at 40° C. under vacuum using a rotary evaporator. The resulting solution was immediately diluted with 10 ml of triple-distilled water and the emulsion was mixed well for 1 min. The emulsion was further diluted with 40 ml oxygenated water. Four ml aliquots of this reagent were transferred into different tubes containing 0.2 ml of the desired amount of antioxidant in ethanol. A control consisting of 0.2 ml of ethanol and 4 ml of emulsion was prepared. Optical density of all samples were taken immediately (t=0) and at 15 min intervals for 2 h (t=120). The tubes were placed in a water bath at 50° C. between measurements. All determinations were preformed in duplicate. Measurement of color was recorded until the color of β-carotene disappears.
The antioxidant activity (AA) of the isolated compound was evaluated in terms of bleaching the β-carotene using the formula of Hiddgo et al., (Phytochemistry, 37, 1585, 1994). AA=100[1−(Ao−At)/(A^oo−A^ot)] where Ao and A^o are the absorbance measured at the beginning of the incubation for flavidin and the control, respectively, and At and A^ot are the absorbance measured in the presence and absence of the flavidin after incubation for 120 min.

On to `COc1ccc(O)c(C(C)(C)C)c1` [BHA, butylated hydroxy anisole, reference compound], for which the “bleaching time of β-carotene” value was “enhanced”.
For the molecule `Oc1cc2c3c(c1)COc1cc(O)cc(c1-3)CC2` [flavidin, 2,7-dihydroxy 9,10-dihydrophenanthro-4,5 bcd-pyran], the “bleaching time of β-carotene” value is listed as “enhanced”. This molecule also came in with an antioxidant activity (10 ppm) of 68.5%. Further, the antioxidant activity (25 ppm) came out at 79%. For the same molecule, the antioxidant activity (50 ppm, maximum activity) is listed as 90.2%.
